Reference: patent publication US20050159427A1, “N-acylsulfonamide apoptosis promoters” (priority 2003, published 2005)

Tested on: A549 human non-small cell lung carcinoma cells
Test: Paclitaxel combination on A549 cells
Type: cell-based
Conditions: stated after the paclitaxel combination results on A549 and PC-3 cells

CN(C)CC[C@@H](CSc1ccccc1)Nc1ccc(S(=O)(=O)NC(=O)c2ccc(N3CCN(Cc4ccccc4-c4ccc(Cl)cc4)CC3)cc2)cc1[N+](=O)[O-] [enantiomer of EXAMPLE 2, N-(4-(4-((4′-chloro(1,1′-biphenyl)-2-yl)methyl)piperazin-1-yl)benzoyl)-4-(((1S)-3-(dimethylamino)-1-((phenylsulfanyl)methyl)propyl)amino)-3-nitrobenzenesulfonamide]
efficacy relative to EXAMPLE 2: less efficacious
